The results in this text go back to ChEMBL document CHEMBL1126412, “RP 70676: A potent systematically available inhibitor of acyl-CoA:cholesterol O-acyl transferase (ACAT)” (Bioorg Med Chem Lett, 1992).

Experiment [1] deals with T1, Sterol O-acyltransferase 1 (Rattus norvegicus, UniProt O70536).
T1 sequence (O70536 whole entry): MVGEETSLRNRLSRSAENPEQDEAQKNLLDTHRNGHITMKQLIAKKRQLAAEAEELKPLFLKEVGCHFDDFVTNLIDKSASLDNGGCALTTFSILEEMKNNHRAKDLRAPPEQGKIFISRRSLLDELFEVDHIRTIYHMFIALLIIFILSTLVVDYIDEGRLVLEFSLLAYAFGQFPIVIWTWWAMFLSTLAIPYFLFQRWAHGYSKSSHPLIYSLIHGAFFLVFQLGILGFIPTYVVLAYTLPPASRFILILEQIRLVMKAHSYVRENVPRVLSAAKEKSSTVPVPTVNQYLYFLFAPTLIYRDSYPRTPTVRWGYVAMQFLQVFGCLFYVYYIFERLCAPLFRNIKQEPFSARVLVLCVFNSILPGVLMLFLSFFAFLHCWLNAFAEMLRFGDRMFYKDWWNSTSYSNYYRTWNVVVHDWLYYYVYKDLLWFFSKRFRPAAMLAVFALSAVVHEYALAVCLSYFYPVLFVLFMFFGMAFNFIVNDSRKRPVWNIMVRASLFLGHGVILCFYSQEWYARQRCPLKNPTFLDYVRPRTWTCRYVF
Description: Concentration required for the inhibition of cholesterol O-acyl transferase (ACAT) from rat liver.

Experiment [2] addresses T2, Acyl-CoA:cholesterol acyltransferase (Oryctolagus cuniculus, UniProt Q95214).
T2 sequence (Q95214 whole entry): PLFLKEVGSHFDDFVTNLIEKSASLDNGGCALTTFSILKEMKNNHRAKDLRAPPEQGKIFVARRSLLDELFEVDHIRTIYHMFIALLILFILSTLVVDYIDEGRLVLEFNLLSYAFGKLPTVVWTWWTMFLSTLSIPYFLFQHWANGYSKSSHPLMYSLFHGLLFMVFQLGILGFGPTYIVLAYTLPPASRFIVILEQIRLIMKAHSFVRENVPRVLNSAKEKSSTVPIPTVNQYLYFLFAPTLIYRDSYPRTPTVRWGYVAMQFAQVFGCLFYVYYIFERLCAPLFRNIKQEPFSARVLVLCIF
Description: Concentration required for the inhibition of cholesterol O-acyl transferase (ACAT) from cholesterol fed rabbit liver.

For experiment [3], the species on record is Oryctolagus cuniculus. Description: Percent change of free cholesterol levels in thoracic aorta of NZW rabbits form control. The class given is functional.
The species named for experiment [4] is Oryctolagus cuniculus. Description: Percent change of plasma cholesterol level in NZW rabbits from control. It counts as functional.
The species entered for experiment [5] is Oryctolagus cuniculus. Description: Percent change of cholesterol ester level in thoracic aorta of NZW rabbits from control. It counts as functional.
The species named for experiment [6] is Oryctolagus cuniculus. Description: Percent change of cholesterol esters level in abdominal aorta of NZW rabbits form control. The class given is functional.
For experiment [7], the species on record is Oryctolagus cuniculus. Description: Evaluated for the reduction of plasma cholesterol level in NZW rabbits with 5% cholesterol in diet; AUC; mM.days. It counts as functional.
For experiment [8], the species on record is Oryctolagus cuniculus. Description: Percent change of plasma cholesterol level in NZW rabbits form control. It counts as functional.
The species entered for experiment [9] is Oryctolagus cuniculus. Description: Percent change of cholesterol esters level in abdominal aorta of NZW rabbits from control. It counts as functional.
The species entered for experiment [10] is Oryctolagus cuniculus. Description: Percent change of cholesterol ester level in thoracic aorta of NZW rabbits form control. It counts as functional.
Experiment [11] concerns the target T3, Sterol O-acyltransferase 1 (Cricetulus griseus, UniProt Q60457).
T3 sequence (Q60457 whole entry): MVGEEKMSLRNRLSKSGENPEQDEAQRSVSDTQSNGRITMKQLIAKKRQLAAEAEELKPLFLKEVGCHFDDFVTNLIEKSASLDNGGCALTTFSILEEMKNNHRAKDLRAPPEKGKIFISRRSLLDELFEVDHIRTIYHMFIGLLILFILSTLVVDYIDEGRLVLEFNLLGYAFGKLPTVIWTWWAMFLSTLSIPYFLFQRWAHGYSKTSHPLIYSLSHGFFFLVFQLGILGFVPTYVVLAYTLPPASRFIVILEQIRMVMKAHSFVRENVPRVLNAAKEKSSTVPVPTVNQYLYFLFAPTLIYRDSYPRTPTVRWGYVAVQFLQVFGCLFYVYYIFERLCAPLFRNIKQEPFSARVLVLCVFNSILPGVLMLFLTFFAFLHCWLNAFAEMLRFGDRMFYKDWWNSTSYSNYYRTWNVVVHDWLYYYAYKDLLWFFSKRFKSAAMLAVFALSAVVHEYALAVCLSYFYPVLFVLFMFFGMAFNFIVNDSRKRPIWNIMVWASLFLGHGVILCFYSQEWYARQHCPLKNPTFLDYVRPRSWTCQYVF
Description: Concentration required for the inhibition of Cholesterol O-acyl transferase from hamster liver.

The species entered for experiment [12] is Oryctolagus cuniculus. Description: Evaluated for the reduction of plasma cholesterol level in NZW rabbits with 0.25% cholesterol in diet. The class given is functional.
The species entered for experiment [13] is Oryctolagus cuniculus. Description: Percent change of free cholesterol levels in thoracic aorta of NZW rabbits from control. It counts as functional.
The species entered for experiment [14] is Oryctolagus cuniculus. Description: Percent change of free cholesterol level in abdominal aorta of NZW rabbits form control. The class given is functional.
The species named for experiment [15] is Oryctolagus cuniculus. Description: Percent change of free cholesterol level in abdominal aorta of NZW rabbits from control. It counts as functional.

SMILES strings stand for the structures.

Broadly, the IC50 is the midpoint of a concentration-inhibition curve. A higher IC50 goes with weaker potency. As for `Cn1ccnc1SCCCCSc1nc(-c2ccccc2)c(-c2ccccc2)[nH]1`, the IC50 in [1] was 38 nM; in experiment [2], 180 nM.
For `Cn1ccnc1SCCCSc1nc(-c2ccccc2)c(-c2ccccc2)[nH]1`, the IC50 in experiment [1] amounted to 14 nM; in [2] it was 970 nM.
Take `CCCCCCCN(CCCCCSc1nc(-c2ccccc2)c(-c2ccccc2)[nH]1)C(=O)Nc1ccc(F)cc1F` [LECIMIBIDE]: half-maximal inhibition in experiment [1] (IC50) was put at 10 nM.
Turning to `Cc1cc(C)n(CCCCCSc2nc(-c3ccccc3)c(-c3ccccc3)[nH]2)n1`, the Change in the experiment filed under Oryctolagus cuniculus [3] is less than -44%; in the experiment filed under Oryctolagus cuniculus [4], less than -40%; in the experiment filed under Oryctolagus cuniculus [5] it was less than -42%; in the experiment filed under Oryctolagus cuniculus [6] it was less than -46%; in the experiment filed under Oryctolagus cuniculus [8] it was less than -46%; in the experiment filed under Oryctolagus cuniculus [9], less than -40%. The Change in the experiment filed under Oryctolagus cuniculus [10] is less than -40%; in the experiment filed under Oryctolagus cuniculus [13], less than -36%; in the experiment listed under Oryctolagus cuniculus [14], less than -36%; in the experiment listed under Oryctolagus cuniculus [15], less than -27%. The AUC in the experiment filed under Oryctolagus cuniculus [7] was 1440 mM·days; in the experiment listed under Oryctolagus cuniculus [12], 776 mM·days. Besides, in experiment [11], the concentration for half-maximal inhibition (IC50) is 12 nM.
Take `c1ccc(-c2nc(SCCCCCn3cccn3)[nH]c2-c2ccccc2)cc1`: the IC50 is 24 nM in [1] and 280 nM in experiment [2].
In the same order, the values of `c1ccc(-c2nc(SCCCCCSc3ncc[nH]3)[nH]c2-c2ccccc2)cc1` are 44 nM and 880 nM.
For `c1ccc(-c2nc(SCCCCCCn3cccn3)[nH]c2-c2ccccc2)cc1`, in that order: 48 nM and 590 nM.
For `Cn1ccnc1S(=O)(=O)CCCSc1nc(-c2ccccc2)c(-c2ccccc2)[nH]1`, in that order: 11 nM and 8000 nM.
Regarding `c1ccc(-c2nc(SCCCn3cccn3)[nH]c2-c2ccccc2)cc1`, the figures for the 50% inhibitory concentration (IC50) in [1] and in [2] were 50 nM and more than 1000 nM, respectively.
